This series can be described thus: Pharmacokinetic study, plasma level 2 hours after oral dosing in rats. The class given is in vivo. Here is the method:
Pharmacokinetic studies were conducted to determine absorption and distribution profiles of the disclosed compounds which were orally administered to rats.
Compounds were formulated in a 1% DMA/99% Vitamin E TPGS vehicle. Prepared compounds were dosed via oral gavage (PO). Following the appropriate pretreatment time of 2 hours, rats were anesthetized with isoflurane gas. Blood was collected into tubes containing EDTA via retro-orbital eye bleed. Whole blood was spun in a micro-centrifuge at approximately 13,000 rpm for 5 minutes at room temperature. Separated plasma was subsequently aliquoted into eppendorf tubes. Samples were stored at −80° C. until prepped for analysis.
Plasma samples were thawed and the required amount of plasma for standards, blanks and dilutions were made. The dilutions were prepared before plating. Preparation of crash solution included cold acetonitrile+0.1% formic acid and 25 ng/mL of a FAAH inhibitor used as internal standard. solvent standards of the FAAH inhibitor being studied were preparation at 10, 30, 100, 300, 1000, 3000, 10000, 30000, 100000, and 300000 ng/mL in DMSO. Then a plasma standard curve was generated from the solvent standards (final concentrations of standards in plasma were: 0.1, 0.3, 1, 3, 10, 30, 100, 300, 1000, 3000 ng/mL). 50 μL of each plasma sample/dilution, standard, or blank was transferred into 96-well plates. To each well, 200 μL of cold crash solution was added. The plate was covered and gently vortexed. The plate was centrifuged at 3500 rpm, 4° C. for 10 min. 200 μL of each supernatant was transferred into new plates. The plates were dried under nitrogen in a TurboVap at 55° C. The sample in each well was re-suspended with 100 μL of 30% acetonitrile, covered and vortexed gently. The well solutions were analyzed by the LC/MS/MS conditions and specifications below.
HPLC column was a Clipeus C8, 2.1×30 mm, 5 μm, with Basic 8 guard column using 20 μL injections. Mobile phase used was mobile phase A: 0.1% Formic Acid in water and mobile phase B: 0.1% Formic Acid in 85:10:5 ACN:IPA:H2O. The flow rate for the run was 0.5 mL/min and the gradient for the 4 minute total run time was: 0.0 minutes
In the case of `COc1cc(NC(=O)C(=O)c2c(C)n(Cc3ccc(Cl)cc3)c3ccc(OC(C)=O)cc23)ccn1` [Compound 1, 1-(4-chlorobenzyl)-3-(2-(2-methoxypyridin-4-ylamino)-2-oxoacetyl)-2-methyl-1H-indol-5-yl acetate], the “2 hr plasma level-ng/mL (rat, 10 mg/kg PO, 2 hr)” value (“2 hr plasma level-ng/mL” below) is recorded as “A (A = Less than 10 nM)”.

Take `COc1cc(NC(=O)C(=O)c2c(C)n(Cc3ccc(Cl)cc3)c3ccc(O)cc23)ccn1` [Compound 2, 2-(1-(4-chlorobenzyl)-5-hydroxy-2-methyl-1H-indol-3-yl)-N-(2-methoxypyridin-4-yl)-2-oxoacetamide]: the “2 hr plasma level-ng/mL” value is on record as “A (A = Less than 10 nM)”.

For the compound `COc1cc(NC(=O)C(=O)c2c(C)n(Cc3ccc(Cl)cc3)c3ccc(C(C)=O)cc23)ccn1` [Compound 5, 2-(5-acetyl-1-(4-chlorobenzyl)-2-methyl-1H-indol-3-yl)-N-(2-methoxypyridin-4-yl)-2-oxoacetamide], the “2 hr plasma level-ng/mL” value is “C (C = between 100 nM and 1000 nM)”.

Regarding `COc1cc(NC(=O)C(=O)c2c(C)n(Cc3ccc(Cl)cc3)c3ccc(CO)cc23)ccn1` [Compound 8, 2-(1-(4-chlorobenzyl)-5-(hydroxymethyl)-2-methyl-1H-indol-3-yl)-N-(2-methoxypyridin-4-yl)-2-oxoacetamide], the “2 hr plasma level-ng/mL” value was “C (C = between 100 nM and 1000 nM)”.

As to `CNc1ccc2c(c1)c(C(=O)C(=O)Nc1ccnc(OC)c1)c(C)n2Cc1ccc(Cl)cc1` [Compound 9, 2-(1-(4-chlorobenzyl)-2-methyl-5-(methylamino)-1H-indol-3-yl)-N-(2-methoxypyridin-4-yl)-2-oxoacetamide], the “2 hr plasma level-ng/mL” value is “C (C = between 100 nM and 1000 nM)”.

With `COc1cc(NC(=O)C(=O)c2c(C)n(Cc3ccc(Cl)cc3)c3ccc(COC(C)=O)cc23)ccn1` [Compound 10, (1-(4-chlorobenzyl)-3-(2-(2-methoxypyridin-4-ylamino)-2-oxoacetyl)-2-methyl-1H-indol-5-yl)methyl acetate], the “2 hr plasma level-ng/mL” value was “C (C = between 100 nM and 1000 nM)”.

Consider `COCc1ccc2c(c1)c(C(=O)C(=O)Nc1ccnc(OC)c1)c(C)n2Cc1ccc(Cl)cc1` [Compound 11, 2-(1-(4-chlorobenzyl)-5-(methoxymethyl)-2-methyl-1H-indol-3-yl)-N-(2-methoxypyridin-4-yl)-2-oxoacetamide], for which the “2 hr plasma level-ng/mL” value was “C (C = between 100 nM and 1000 nM)”.

Take `COc1ccc2c(c1)c(C(=O)C(=O)Nc1ccnc(OC)c1)c(C)n2Cc1cnc(Cl)cn1` [Compound 12, 2-(1-((5-chloropyrazin-2-yl)methyl)-5-methoxy-2-methyl-1H-indol-3-yl)-N-(2-methoxypyridin-4-yl)-2-oxoacetamide]: the “2 hr plasma level-ng/mL” value is “C (C = between 100 nM and 1000 nM)”.

Regarding `COc1cc(NC(=O)C(=O)c2c(C)n(Cc3ncc(Cl)cc3Cl)c3cc(F)c(OC)cc23)ccn1` [Compound 13, 2-(1-((3,5-dichloropyridin-2-yl)methyl)-6-fluoro-5-methoxy-2-methyl-1H-indol-3-yl)-N-(2-methoxypyridin-4-yl)-2-oxoacetamide], the “2 hr plasma level-ng/mL” value was “C (C = between 100 nM and 1000 nM)”.

With `COc1cc(NC(=O)C(=O)c2c(C)n(Cc3ccc(F)cc3F)c3cc(F)c(OC)cc23)ccn1` [Compound 14, 2-(1-(2,4-difluorobenzyl)-6-fluoro-5-methoxy-2-methyl-1H-indol-3-yl)-N-(2-methoxypyridin-4-yl)-2-oxoacetamide], the “2 hr plasma level-ng/mL” value is “D (D = greater than 1000 nM)”.

With `COc1cc(NC(=O)C(=O)c2c(C)n(Cc3ccc(Cl)cc3)c3ccc(C#N)cc23)ccn1` [Compound 15, 2-(1-(4-chlorobenzyl)-5-cyano-2-methyl-1H-indol-3-yl)-N-(2-methoxypyridin-4-yl)-2-oxoacetamide], the “2 hr plasma level-ng/mL” value is “D (D = greater than 1000 nM)”.

In the case of `COc1cc(NC(=O)C(=O)c2c(C)n(Cc3ccc(Cl)cc3)c3ccc(N(C)C)cc23)ccn1` [Compound 17, 2-(1-(4-chlorobenzyl)-5-(dimethylamino)-2-methyl-1H-indol-3-yl)-N-(2-methoxypyridin-4-yl)-2-oxoacetamide], the “2 hr plasma level-ng/mL” value was “C (C = between 100 nM and 1000 nM)”.

Consider `COc1cc(NC(=O)C(=O)c2c(C)n(Cc3ccc(Cl)cc3)c3ccc(Br)cc23)ccn1` [Compound 18, 2-(5-bromo-1-(4-chlorobenzyl)-2-methyl-1H-indol-3-yl)-N-(2-methoxypyridin-4-yl)-2-oxoacetamide], for which the “2 hr plasma level-ng/mL” value is listed as “D (D = greater than 1000 nM)”.

For `COc1cc(NC(=O)C(=O)c2c(C)n(Cc3ccc(Cl)cc3)c3ccc([N+](=O)[O-])cc23)ccn1` [Compound 19, 2-(1-(4-chlorobenzyl)-2-methyl-5-nitro-1H-indol-3-yl)-N-(2-methoxypyridin-4-yl)-2-oxoacetamide], the “2 hr plasma level-ng/mL” value was “C (C = between 100 nM and 1000 nM)”.

For `COc1cc(NC(=O)C(=O)c2c(C)n(Cc3ccc(Cl)cc3)c3ccc(N)cc23)ccn1` [Compound 20, 2-(5-amino-1-(4-chlorobenzyl)-2-methyl-1H-indol-3-yl)-N-(2-methoxypyridin-4-yl)-2-oxoacetamide], the “2 hr plasma level-ng/mL” value was “C (C = between 100 nM and 1000 nM)”.

As for `COc1cc(NC(=O)C(=O)c2c(C)n(Cc3ccc(Cl)cc3)c3ccc(C(F)(F)F)cc23)ccn1` [Compound 21, 2-(1-(4-chlorobenzyl)-2-methyl-5-(trifluoromethyl)-1H-indol-3-yl)-N-(2-methoxypyridin-4-yl)-2-oxoacetamide], the “2 hr plasma level-ng/mL” value is “C (C = between 100 nM and 1000 nM)”.

`COc1cc(NC(=O)C(=O)c2c(C)n(Cc3ccc(Cl)cc3)c3ccc(NC(C)=O)cc23)ccn1` [Compound 22, 2-(5-acetamido-1-(4-chlorobenzyl)-2-methyl-1H-indol-3-yl)-N-(2-methoxypyridin-4-yl)-2-oxoacetamide]: the “2 hr plasma level-ng/mL” value is “B (B = between 10 nM and 100 nM)”.

For `COc1cc(NC(=O)C(=O)c2c(C)n(Cc3ccc(Cl)cc3)c3ccc(OC(F)(F)F)cc23)ccn1` [Compound 23, 2-(1-(4-chlorobenzyl)-2-methyl-5-(trifluoromethoxy)-1H-indol-3-yl)-N-(2-methoxypyridin-4-yl)-2-oxoacetamide], the “2 hr plasma level-ng/mL” value was “C (C = between 100 nM and 1000 nM)”.

As for `COc1cnc2c(c1)c(C(=O)C(=O)Nc1ccnc(OC)c1)c(C)n2Cc1ncc(Cl)cc1Cl` [Compound 29, 2-(1-((3,5-dichloropyridin-2-yl)methyl)-5-methoxy-2-methyl-1H-pyrrolo[2,3-b]pyridin-3-yl)-N-(2-methoxypyridin-4-yl)-2-oxoacetamide], the “2 hr plasma level-ng/mL” value is “D (D = greater than 1000 nM)”.

Regarding `COc1cc(NC(=O)C(=O)c2c(C)n(Cc3ncc(Cl)cc3Cl)c3ccc(C)cc23)ccn1` [Compound 30, 2-(1-((3,5-dichloropyridin-2-yl)methyl)-2,5-dimethyl-1H-indol-3-yl)-N-(2-methoxypyridin-4-yl)-2-oxoacetamide], the “2 hr plasma level-ng/mL” value is “C (C = between 100 nM and 1000 nM)”.

For `COc1cc(NC(=O)C(=O)c2c(C)n(Cc3ncc(Cl)cc3Cl)c3ccccc23)ccn1` [Compound 31, 2-(1-((3,5-dichloropyridin-2-yl)methyl)-2-methyl-1H-indol-3-yl)-N-(2-methoxypyridin-4-yl)-2-oxoacetamide], the “2 hr plasma level-ng/mL” value is listed as “D (D = greater than 1000 nM)”.

In the case of `COc1ccc(Cn2c(C)c(C(=O)C(=O)Nc3ccnc(OC)c3)c3cc(OC)c(F)cc32)nc1` [Compound 32, 2-(6-fluoro-5-methoxy-1-((5-methoxypyridin-2-yl)methyl)-2-methyl-1H-indol-3-yl)-N-(2-methoxypyridin-4-yl)-2-oxoacetamide], the “2 hr plasma level-ng/mL” value is “C (C = between 100 nM and 1000 nM)”.

For the compound `COc1cc(NC(=O)C(=O)c2c(C)n(Cc3ncc(Cl)cc3F)c3ccc(C)cc23)ccn1` [Compound 33, 2-(1-((5-chloro-3-fluoropyridin-2-yl)methyl)-2,5-dimethyl-1H-indol-3-yl)-N-(2-methoxypyridin-4-yl)-2-oxoacetamide], the “2 hr plasma level-ng/mL” value was “C (C = between 100 nM and 1000 nM)”.

As to `COc1cnc2c(c1)c(C(=O)C(=O)Nc1ccnc(OC)c1)c(C)n2Cc1ncc(Cl)cc1F` [Compound 34, 2-(1-((5-chloro-3-fluoropyridin-2-yl)methyl)-5-methoxy-2-methyl-1H-pyrrolo[2,3-b]pyridin-3-yl)-N-(2-methoxypyridin-4-yl)-2-oxoacetamide], the “2 hr plasma level-ng/mL” value was “D (D = greater than 1000 nM)”.

In the case of `COc1cc(NC(=O)C(=O)c2c(C)n(Cc3ccc(Cl)cc3)c3ccc(OC)nc23)ccn1` [Compound 36, 2-(1-(4-chlorobenzyl)-5-methoxy-2-methyl-1H-pyrrolo[3,2-b]pyridin-3-yl)-N-(2-methoxypyridin-4-yl)-2-oxoacetamide], the “2 hr plasma level-ng/mL” value is “C (C = between 100 nM and 1000 nM)”.
